According to US5580953A, “Amylin antagonist peptides and uses therefor” (Amylin Pharmaceuticals, Inc., priority 1991, dated 1996):
No end group written: not given here.

Key:
[1] = test system: insulin-stimulated glycogen synthesis in soleus muscle; assay: rat soleus muscle assay; assay type: cell-based; settings: for amylin agonist activity as measured by the soleus muscle assay: inhibition of insulin-stimulated glycogen synthesis; for amylin antagonist activity in the soleus muscle assay: resumption of insulin-stimulated glycogen synthesis in the presence of 100 nM rat amylin
Excerpt: Several assays have been developed to measure amylin activity and to evaluate new compounds. A receptor binding assay as described herein may be used to screen for or to identify compounds which bind to amylin receptors and which may, therefore, be candidate amylin agonists and antagonists. The rat soleus muscle assay may be used as a secondary procedure to screen for or to evaluate and differentiate between amylin agonists and amylin antagonists. In the soleus muscle assay, amylin and amylin agonists inhibit insulin-stimulated glycogenesis. Amylin antagonists counteract this amylin inhibition which results in the recovery of insulin-stimulated glycogenesis.
Assays of biological activity of amylin preparations in the soleus muscle are performed using previously described methods (Leighton, B. and Cooper, G. J. S. (1988) Nature 335: 632-635; Cooper, G. J. S., Leighton, B., Dimitriadis, G. D., Parry-Billings, M., Kowalchuk, J. M., Howland, K., Rothbard, J. B., Willis, A. C. and Reid, K. B. M. (1988) Proc. Natl. Acad. Sci. USA 85: 7763-7766.) In summary, amylin agonist activity is assessed by measuring the inhibition of insulin-stimulated glycogen synthesis in soleus muscle in response to an amylin agonist. Amylin antagonist activity is assessed by measuring the resumption of insulin-stimulated glycogen synthesis in the presence of 100 nM rat amylin and an amylin antagonist. Concentrations of peptide dissolved in carrier-free buffers are determined by quantitative amino acid analysis, as described therein. The ability of compounds to act as antagonists in this assay is determined by measuring IC50 values. Standard errors are determined by fitting of sigmoidal dose response curves using a four parameter logistic equation (De Lean, A., Munson, P. J., Guardabasso, V. and Rodbard, D. (1988) ALLFIT, Version 2.7, National Institute of Child Health and Human Development, N.I.H. Bethesda, Md., 1 diskette).

[2] = test system: insulin resistance caused by administered amylin; assay: infusion into rats, reversal of amylin-induced insulin resistance; assay type: in vivo; settings: infusions into rats
Excerpt: A number of amylin antagonists have been characterized using these biological assays. The N-terminally deleted peptides ^8-37 Peptide A, ^8-37 Peptide B and ^8-32 Peptide C, were all found to compete with amylin in the receptor binding assay. […] ID. NO. 195]; ^9-37 Peptide B [SEQ. ID. NO. 27]; ^11-37 Peptide B [SEQ. ID. NO. 29]; ^18-37 Peptide B [SEQ. ID. NO. 36]; ^26 Asp^27 Val^29 Ala^8-32 Peptide C [SEQ. ID. NO. 196]; ^30 Asn^32 Tyr^8-32 Peptide C [SEQ. ID. NO. 197]; Ac-^9-32Peptide C [SEQ. ID. NO. 48]; Ac-^30 Asn^32 Tyr^9-32 Peptide C [SEQ. ID. NO. 198]; ^9-23 Peptide C^29-37 Peptide A [SEQ. ID. NO. 199]; Ac-^9-23 Peptide C^29-37 Peptide A; Adm-^9-23 Peptide C^29-37 Peptide A; Ac-^11 Arg^15 Leu^18 Arg^30 Asn^32 Tyr^9-32 Peptide C [SEQ. ID. NO. 200]; Ac-^11 Arg^18 Arg^30 Asn^32 Tyr^9-32 Peptide C [SEQ. ID. NO. 201]; Ac-^18 Arg^30 Asn^32 Tyr^9-32 Peptide C [SEQ. ID. NO. 202]. Infusions of ^8-37 Peptide B [SEQ. ID. NO. 26], ^8-32 Peptide C [SEQ. ID. NO. 47], and Ac-^11 Arg ^18 Arg^30 […] Tyr^9-32 Peptide C [SEQ. ID. NO.

Substance | amylin agonist activity as measured by the soleus muscle assay [1] | amylin antagonist activity in the soleus muscle assay [1] | reversal of insulin resistance caused by administered amylin [2]
VLGKLSQELHKLQTYPRTNTGSGTP-NH2 [^8-32 Peptide C] | negligible agonist activity | act as amylin antagonists | reverse the insulin resistance caused by administered amylin
^8-37 Peptide B (VTHRLAGLLSRSGGVVKNNFVPTNVGSKAF) [ID; NO; 26] | negligible agonist activity | act as amylin antagonists | reverse the insulin resistance caused by administered amylin
